Values quoted from earlier work in patent publication US6986763B2, “Methods and compositions usable in cataract surgery” (PHACOTREAT AB, priority 2001, dated 2006).

Tested on: lens epithelial cells
Conditions: in vitro

Compound | inhibiting lens epithelial cells proliferation
CN(Cc1cnc2nc(N)nc(N)c2n1)c1ccc(C(=O)N[C@@H](CCC(=O)O)C(=O)O)cc1 [methotrexate] | effective
O=c1[nH]cc(F)c(=O)[nH]1 [5-fluorouracil] | effective
CC(=O)O[C@H]1C(=O)[C@@]2(C)[C@H]([C@H](OC(=O)c3ccccc3)[C@]3(O)C[C@H](OC(=O)[C@H](O)[C@@H](NC(=O)c4ccccc4)c4ccccc4)C(C)=C1C3(C)C)[C@]1(OC(C)=O)CO[C@@H]1C[C@@H]2O [taxol] | effective
COc1cc2c(c(OC)c1OC)-c1ccc(OC)c(=O)cc1[C@@H](NC(C)=O)CC2 [colchicines] | effective
COc1cccc2c1C(=O)c1c(O)c3c(c(O)c1C2=O)C[C@@](O)(C(C)=O)C[C@@H]3O[C@H]1C[C@H](N)[C@H](O)[C@H](C)O1 [daunomycin/daunorubicin] | effective
COc1cccc2c1C(=O)c1c(O)c3c(c(O)c1C2=O)C[C@@](O)(C(=O)CO)C[C@@H]3O[C@H]1C[C@H](N)[C@H](O)[C@H](C)O1 [doxorubicin] | effective
CO[C@@]12[C@H](COC(N)=O)C3=C(C(=O)C(C)=C(N)C3=O)N1C[C@@H]1N[C@@H]12 [mitomycin] | effective

Tested on: lens epithelial cells
Conditions: cadaver eyes; 2% solution in irrigation solution

Compound | damage to the zonules
trypsin | the zonules were damaged

Same assay, conditions: cadaver eyes; agent in irrigation solution

Compound | separation of lens epithelial cells
O=C(O)CN(CCN(CC(=O)O)CC(=O)O)CC(=O)O [EDTA, Ethylenediamine tetraacetic acid] | the anterior lens epithelial cells could be separated
trypsin | lens epithelial cells were stripped in places
